Values after ≈ are worked out from the molar mass of the structure shown. Active and inactive are the calls of the source. No cut-off for these calls is given here.

As usually defined, the EC50 is the concentration needed to bring the measured effect to its halfway point.

What all share (type): functional, organism-based
In assay [1] the test system is Human alphaherpesvirus 2. The experiment in a line: Tested for antiviral activity against HSV-2 in CCL 81 cells.
The test system of assay [2] is Human immunodeficiency virus 1. Description: Tested for antiviral activity against HIV-1 in MT-4 cells. To be noted: MT4.
Assay [3] relates to Human betaherpesvirus 5. Description: Tested for antiviral activity against HCMV in […] cells.
The subject of assay [4] is Human alphaherpesvirus 1. The experiment in a line: Tested for antiviral activity against HSV-1 in CCL 81 cells.
The subject of assay [5] is Human betaherpesvirus 5. The experiment in a line: Tested for antiviral activity against HCMV in Davis cell line. Particulars: Human betaherpesvirus 5, Davis.
Assay [6] concerns Human betaherpesvirus 5. The experiment in a line: Tested for antiviral activity against HCMV in AD169 cell line. Particulars: Human betaherpesvirus 5, AD169.

For the compound `[N-]=[N+]=N[C@@H]1C[C@@H](CO)S[C@@H]1n1cnc2c(N)ncnc21`, the outcome in assay [1], in assay [2] and in assay [4] was inactive. In addition, in assay [3], the Activity result is “Significant activity”.
As for `Cc1cn([C@@H]2S[C@@H](CO)C[C@@H]2N=[N+]=[N-])c(=O)[nH]c1=O`, the outcome in assay [1], in assay [2] and in assay [4] was inactive. Besides, the Activity result in assay [3] is “Significant activity”.
Take `[N-]=[N+]=N[C@H]1C[C@H](COC(=O)c2ccccc2)S[C@H]1n1ccc(=O)n(C(=O)c2ccccc2)c1=O`: the result in assay [1], in assay [2] and in assay [4] was inactive. Further, the Activity entry in assay [3] is “Significant activity”.
`CNc1ncnc2c1ncn2[C@H]1S[C@H](CO)C[C@H]1N=[N+]=[N-]`: the EC50 stood at 25.8 µg/mL (≈ 84.2 µM) in assay [5] and 19.1 µg/mL (≈ 62.5 µM) in assay [6].
In the case of `[N-]=[N+]=N[C@@H]1C[C@@H](CO)S[C@H]1n1cnc2c(N)ncnc21`, the outcome in assay [1], in assay [2] and in assay [4] was inactive. Further, in assay [3], the Activity entry was “Significant activity”.
Consider `CC(C)(C)[Si](OC[C@H]1C[C@H](N=[N+]=[N-])[C@@H](n2ccc(NC(=O)c3ccccc3)nc2=O)S1)(c1ccccc1)c1ccccc1`, for which the outcome in assay [1], in assay [2] and in assay [4] was inactive. The Activity entry in assay [3] is “Significant activity”.
Take `[N-]=[N+]=N[C@H]1C[C@H](CO)S[C@H]1n1ccc(N)nc1=O`: the outcome in assay [1], in assay [2] and in assay [4] was inactive. Moreover, the Activity result in assay [3] was “Significant activity”.
In the case of `[N-]=[N+]=N[C@H]1C[C@H](COC(=O)c2ccccc2)S[C@@H]1n1ccc(=O)n(C(=O)c2ccccc2)c1=O`, the result in assay [1], in assay [2] and in assay [4] was inactive. In addition, the Activity result in assay [3] is “Significant activity”.
Turning to `CC(=O)OC1S[C@@H](CO[Si](c2ccccc2)(c2ccccc2)C(C)(C)C)C[C@@H]1N=[N+]=[N-]` (stereo partly drawn), the result in assay [1], in assay [2], in assay [3] and in assay [4] was inactive.
On to `[N-]=[N+]=N[C@H]1C[C@H](CO)S[C@H]1n1cnc2c(N)ncnc21`, for which the outcome in assay [1], in assay [2] and in assay [4] was inactive. The Activity result in assay [3] is “Significant activity”.
As to `[N-]=[N+]=N[C@H]1C[C@H](CO)S[C@@H]1n1ccc(N)nc1=O`, the outcome in assay [1], in assay [2] and in assay [4] was inactive. Moreover, the Activity result in assay [3] is “Significant activity”.
Turning to `CC(C)(C)[Si](OC[C@H]1C[C@H](N=[N+]=[N-])[C@H](n2ccc(NC(=O)c3ccccc3)nc2=O)S1)(c1ccccc1)c1ccccc1`, the outcome in assay [1], in assay [2] and in assay [4] was inactive. In assay [3], the Activity result is “Significant activity”.
Consider `CNc1ncnc2c1ncn2[C@H]1S[C@@H](CO)C[C@@H]1N=[N+]=[N-]`, for which the result in assay [1], in assay [2] and in assay [4] was inactive. Further, the Activity entry in assay [3] is “Significant activity”.
With `[N-]=[N+]=N[C@H]1C[C@H](CO)S[C@@H]1n1cnc2c(N)ncnc21`, the outcome in assay [1], in assay [2] and in assay [4] was inactive. In addition, in assay [3], the Activity result is “Significant activity”.
As for `[N-]=[N+]=N[C@H]1C[C@H](CO)S[C@@H]1n1ccc(=O)[nH]c1=O`, the result in assay [1], in assay [2] and in assay [4] was inactive. Moreover, in assay [3], the Activity entry is “Significant activity”.
Regarding `[N-]=[N+]=N[C@H]1C[C@H](CO)S[C@@H]1n1cnc2c(Cl)ncnc21`, the result in assay [1], in assay [2] and in assay [4] was inactive. In addition, in assay [3], the Activity entry is “Significant activity”.
With `[N-]=[N+]=N[C@@H]1C[C@@H](CO)S[C@@H]1n1cnc2c(Cl)ncnc21`, the result in assay [1], in assay [2] and in assay [4] was inactive. Also, in assay [3], the Activity result was “Significant activity”.
With `CNc1ncnc2c1ncn2[C@@H]1S[C@@H](CO)C[C@@H]1N=[N+]=[N-]`, the result in assay [1], in assay [2] and in assay [4] was inactive. In assay [3], the Activity result is “Significant activity”.
In the case of `[N-]=[N+]=N[C@H]1C[C@H](CO)S[C@H]1n1cnc2c(Cl)ncnc21`, the outcome in assay [1], in assay [2] and in assay [4] was inactive. Moreover, in assay [3], the Activity entry was “Significant activity”.
Consider `Nc1nc2c(ncn2COC(CO)CO)c(=O)[nH]1` [GANCICLOVIR], for which the EC50 in assay [5] amounted to 4.07 µg/mL (≈ 15.9 µM); in assay [6], 0.98 µg/mL (≈ 3.84 µM).
For the compound `[N-]=[N+]=N[C@H]1C[C@H](CO)S[C@@H]1n1cnc2c(O)ncnc21`, the outcome in assay [1], in assay [2] and in assay [4] was inactive. Further, the Activity result in assay [3] is “Significant activity”.
Turning to `Cc1cn([C@H]2S[C@@H](CO)C[C@@H]2N=[N+]=[N-])c(=O)[nH]c1=O`, the outcome in assay [1], in assay [2] and in assay [4] was inactive. For the same compound, in assay [3], the Activity result is “Significant activity”.
In the case of `[N-]=[N+]=N[C@@H]1C[C@@H](CO)S[C@H]1n1cnc2c(Cl)ncnc21`, the result in assay [1], in assay [2] and in assay [4] was inactive. Moreover, the Activity result in assay [3] was “Significant activity”.
As to `[N-]=[N+]=N[C@H]1C[C@H](CO)S[C@H]1n1ccc(=O)[nH]c1=O`, the outcome in assay [1], in assay [2] and in assay [4] was inactive. For the same compound, the Activity result in assay [3] is “Significant activity”.
As for `CNc1ncnc2c1ncn2[C@@H]1S[C@H](CO)C[C@H]1N=[N+]=[N-]`, the EC50 stood at 90.2 µg/mL (≈ 294 µM) in assay [5] and 26.1 µg/mL (≈ 85.2 µM) in assay [6].
On to `[N-]=[N+]=N[C@H]1C[C@H](CO)S[C@H]1n1cnc2c(O)ncnc21`, for which the outcome in assay [1], in assay [2] and in assay [4] was inactive. The Activity result in assay [3] was “Significant activity”.
